Laboratory results published in patent publication US10570152B2, “Antibacterial therapeutics and prophylactics” (VYOME BIOSCIENCES PVT. LTD., priority 2015, dated 2020).
In brackets after ≈: the same amount, converted by molar mass. Several values for one entry are separate records, joined by “and”; a condition that tells them apart may be missing. Identical values can stand only once.

Legend:
A. baumannii ATCC 1906 = assay: MIC by micro broth dilution; format: cell-based; settings: Acinetobacter baumannii, ATCC1906, read-out: Minimum inhibitory concentration (MIC)
In short: (§1)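 Bacteria were grown on BHI agar at 37° C. for 24 h, adjusted to 0.5 McFarland and diluted 100-fold. This suspension was added to serially doubled compound in BHI broth, incubated 24 h at 37° C., and MIC was read with Alamar blue.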

E. aerogenes M2-1 = assay: MIC by micro broth dilution; format: cell-based; settings: Klebsiella aerogenes, M21, read-out: Minimum inhibitory concentration (MIC)
In short: as §1

E. aerogenes NCIM 5139 = assay: MIC by micro broth dilution; format: cell-based; settings: Klebsiella aerogenes, NCIM5139, read-out: Minimum inhibitory concentration (MIC)
In short: as §1

E. coli BAA 196 = assay: MIC by micro broth dilution; format: cell-based; settings: Escherichia coli, BAA196, read-out: Minimum inhibitory concentration (MIC)
In short: as §1

E. coli MTCC 1687 = assay: MIC by micro broth dilution; format: cell-based; settings: Escherichia coli, MTCC1687, read-out: Minimum inhibitory concentration (MIC)
In short: as §1

E. faecium NCIM 5421 = assay: MIC by micro broth dilution; format: cell-based; settings: Enterococcus faecium, NCIM5421, read-out: Minimum inhibitory concentration (MIC)
In short: as §1

K. pneumonia ATCC 13883 = assay: MIC by micro broth dilution; format: cell-based; settings: Klebsiella pneumoniae, ATCC13883; K. pneumonia ATCC 13883; read-out: Minimum inhibitory concentration (MIC)
In short: as §1

P. aeruginosa ATCC 27853 = assay: MIC by micro broth dilution; format: cell-based; settings: Pseudomonas aeruginosa, ATCC27853, read-out: Minimum inhibitory concentration (MIC)
In short: as §1

S. aureus ATCC 43300 = assay: MIC by micro broth dilution; format: cell-based; settings: Staphylococcus aureus, ATCC43300; S. aureus ATCC 43300; read-out: Minimum inhibitory concentration (MIC)
In short: as §1

S. aureus CCARM 3505 = assay: MIC by micro broth dilution; format: cell-based; settings: Staphylococcus aureus, CCARM3505, read-out: Minimum inhibitory concentration (MIC)
In short: as §1

S. aureus MTCC 6908 = assay: MIC by micro broth dilution; format: cell-based; settings: Staphylococcus aureus, MTCC6908, read-out: Minimum inhibitory concentration (MIC)
In short: as §1

[1] = tested on: S. epidermidis ATCC 35984; assay: MIC by micro broth dilution; format: cell-based; settings: Staphylococcus epidermidis, ATCC35984, read-out: Minimum inhibitory concentration (MIC)
In short: as §1

S. epidermidis S12-1 = assay: MIC by micro broth dilution; format: cell-based; settings: Staphylococcus epidermidis, S121, read-out: Minimum inhibitory concentration (MIC)
In short: as §1

Gram negative pathogens = assay: MIC interpretations, Gram negative pathogens; format: cell-based; settings: most of the Gram negative pathogens
Procedure: MIC of DART molecules were determined by micro broth dilution as per CLSI guidelines. Bacterial strains were cultured in Brain Heart Infusion Agar (BHIA) at 37° C. for 24 h. For MIC determination, BHI broth (100 μl) was added to each of the wells of a 96 well plate. 100 μl of broth containing drug was added to the first well (1A to 1H) and thereafter serial (double) dilutions were carried out for up to 10 wells (column 1 to column 10 of the 96 well plate). Bacterial inoculum was prepared by adjusting the bacterial culture turbidity to 0.5 McFarland standard (approximately 1.5×10^8 cells/ml) and further diluted (100 times with sterile BHI broth). Diluted bacterial suspension (100 μl) was added to each well except sterility control wells (column 12 of 96 well plate). The plates were incubated at 37° C. for 24 h. The MIC of the test compound was measured after addition of Alamar blue dye.

S. epidermidis S5-2 = assay: Sequential ZIB (zone of inhibition) assay for PMMA beads; format: cell-based, Staphylococcus epidermidis; settings: SmartSet HV impregnated beads
Procedure: S. epidermidis S5-2 cells were grown in Brain Heart Infusion Agar (BHIA) at 37° C. for 24 h. 100 μl of 0.5 McFarland equal bacterial suspension was spread on BHA plates. Drug loaded beads were placed above these plates. Plates were incubated at 37° C. for 24 h. Next day, zone of inhibition (ZOI) the beads were measured following which the beads were placed on fresh BHA plates with bacterial suspension spread and this experiment was continued up to seven days. The drug release pattern was determined by compiling and analyzing the ZOI data of beads on each ZOI cycle up to seven days.

[2] = tested on: P. acnes CCARM 9010 induced paw inflammation; assay: Anti-inflammatory action in vivo, rat paw edema model; set-up: species or system Sprague Dawley rats; settings: topical, 24 h post initiation of treatment (32 h post induction)
Description: Host inflammation is one of the crucial clinical feature of most of the indications associated with bacterial infections. The inventors used an exemplary compound of the invention (Compound 2) to test the anti-inflammatory effects in vivo using rat paw edema model. Inflammation was induced using one of the opportunistic pathogens Propionibacterium acnes prevalent in implant associated infections. Sprague Dawley rats were used for the study and infection was induced by P. acnes CCARM 9010. An inoculum of 1×10^9 CFU/ml of the heat killed bacteria was injected to the plantar side of the right hind paw (˜2×10^7 CFU/paw) except in sham control where saline was injected. Treatments were initiated 8 h post injection by applying the test formulation of Compound 2 (30 mg) twice daily to the plantar surface of the right hind paw and gently rubbing 50 times with the index finger. Comparators Acnedap (dapsone 5% gel) and adapalene gel (Adaferin®) were applied twice daily and once daily based on clinical prescription dosage. Paw sizes were measured in millimeters using Vernier calipers at the start of the infection, 8 h post infection, and 24 h post initiation of treatment (32 h post induction of inflammation). The change in paw size, due to inflammation, was evaluated as the difference between the paw size measured at each time point and the basal paw size measured immediately before edema induction.

[3] = tested on: S. aureus and S. epidermidis; assay: Emergence of resistance assay (serial passaging); format: cell-based, S. aureus MTCC 6908 & S. epidermidis S5-2; settings: upto 28th generation
Procedure: The in vitro emergence of resistance assay was performed for the compounds as per methods reported in literatures. The resistance assay for the test compounds was done in the same manner as documented in the MIC assay using micro broth dilution method as per CLSI guidelines. For the second cycle, bacterial culture was collected from the well showing growth, containing the next lowest concentration to the MIC of test compound, and used as inoculum for the next cycle containing the same or higher range of concentrations depending on the MIC in each cycle. The same procedure was repeated in subsequent cycles for 20-30 days. […] The serial passaging was repeated for 20-30 consecutive cycles. The assay was done in duplicates in each cycle.
An increase in MIC≥8 fold compared to the MIC of the test compound in cycle 1 was considered as a significant development of resistance.

Question: Which results are given for Cc1ncc([N+](=O)[O-])n1CCN1CCN(c2cc3c(cc2F)c(=O)c(C(=O)O)c2n3C(C)S2)CC1 (centres unmarked) [Compound 2, 6-Fluoro-1-methyl-7-(4-(2-(2-methyl-5-nitro-1H-imidazol-1-yl)ethyl)piperazin-1-yl)-4-oxo-1H,4H-[1,3]thiazeto[3,2-a]quinoline-3-carboxylic acid]?
Answer: MIC (A. baumannii ATCC 1906): 8 µg/mL (≈ 15.9 µM); MIC (E. aerogenes M2-1): 8 µg/mL (≈ 15.9 µM); MIC (E. aerogenes NCIM 5139): 4 µg/mL (≈ 7.96 µM); MIC (E. coli BAA 196): 8 µg/mL (≈ 15.9 µM); MIC (E. coli MTCC 1687): 1 µg/mL (≈ 1.99 µM); MIC (E. faecium NCIM 5421): 0.25 µg/mL (≈ 0.497 µM); MIC (K. pneumonia ATCC 13883): 4 µg/mL (≈ 7.96 µM); MIC (P. aeruginosa ATCC 27853): 8 µg/mL (≈ 15.9 µM); MIC (S. aureus ATCC 43300): 0.13 µg/mL (≈ 0.259 µM); MIC (S. aureus CCARM 3505): 16 µg/mL (≈ 31.8 µM); MIC (S. aureus MTCC 6908): 0.53 µg/mL (≈ 1.05 µM); MIC [1]: 0.03 µg/mL (≈ 0.0597 µM); MIC (S. epidermidis S12-1): 8 µg/mL (≈ 15.9 µM); activity (MIC) range (Gram negative pathogens): 4 to 8 µg/mL; Sequential ZOI (S. epidermidis S5-2; Day-1): 2.2 cm; Sequential ZOI (S. epidermidis S5-2; Day-2): 2.1 cm; Sequential ZOI (S. epidermidis S5-2; Day-3): 1.6 cm; Sequential ZOI (S. epidermidis S5-2; Day-4): 0.8 cm; Sequential ZOI (S. epidermidis S5-2; Day-5): 1.6 cm; Sequential ZOI (S. epidermidis S5-2; Day-6): 1.8 cm; Sequential ZOI (S. epidermidis S5-2; Day-7): 1.4 cm; Inhibition of inflammation (%) at 24 h post treatment [2]: 43% and 43.20%; MIC enhancement [3]: 2-4 ×MIC
